Tests used:
Format in all cases: in vivo, guinea pig
histamine-induced models = test: Ocular pruritus inhibition activity to histamine-induced models; details: for Number of eye scratchings: 10 μL/one eye, average, 12 eyes, control 22.8; for Number of eye scratchings / Eye scratching inhibition rate: 30 minutes after 1.0% histamine; for Eye scratching inhibition rate: vs physiological saline control
Description: Palmidrol was suspended in a physiological saline at a concentration of 0.1% or 0.5%(w/v), and the resulting suspension was instilled into both eyes of a 5-week-old male Hartley guinea pig in 10 μL/one eye. After 10 minutes, the palmidrol suspension at the same concentration was also instilled thereinto (twice in total). A physiological saline was used as a control.
After 5 minutes from the second instilling of palmidrol, a physiological saline containing 1.0% (w/v) histamine was instilled into both eyes of the guinea pig in 10 μL/one eye to induce eye scratching action.
The behavior of the guinea pig after administering histamine was videotaped, and the ocular pruritus was evaluated on each eye by counting actions of scratching the eye with the hind foot. The average value of the number of eye scratchings for 30 minutes after administering histamine and the eye scratching inhibition rate are shown in Table 1. In each example, 12 eyes are used.
Eye scratching inhibition rate=100−(number of eye scratchings with test compound)/(number of eye scratchings with control)×100

[1] = tested on: allergic conjunctivitis models; test: Ocular pruritus inhibition activity to allergic conjunctivitis models; details: for Eye scratching inhibition rate: 0.1% (w/v) instilled twice before ovalbumin, 30 minutes, 12 eyes
Description: Aluminum hydroxide gel-adsorbed ovalbumin (20 μg/mL) was dissolved in a physiological saline, and the resulting solution was subconjunctivally injected into both eyes of a 4-week-old male Hartley guinea pig in 100-μL portions for active sensitization. On days 14, 16, 18, 21, 23 and 25 after the sensitization, a physiological saline containing 2.5% (w/v) ovalbumin was instilled into both eyes in 10 μL/one eye to induce allergic conjunctivitis. A physiological saline was used as a control.
Five minutes and 15 minutes (twice in total) before the instilling of ovalbumin on days 16, 18, 21, 23 and 25 after the sensitization, a suspension of 0.1% (w/v) palmidrol in a physiological saline was instilled into both eyes of the guinea pig in 10 μL/one eye.
The behavior of the guinea pig for 30 minutes after the instilling of ovalbumin on days 21, 23 and 25 after the sensitization were videotaped, and the ocular pruritus was evaluated by counting the number of eye scratchings in case of instilling palmidrol and a control. In each example, 12 eyes are used.

[2] = tested on: platelet activating factor (PAF)-induced models; test: Ocular pruritus inhibition activity to platelet activating factor-induced models; details: for Eye scratching inhibition rate: 8 eyes; for Number of eye scratchings in comparison with the controls (in words): instilled suspensions, extent depends approximately on concentration
Description: The ocular pruritus inhibition activity to platelet activating factor (PAF)-induced models was examined using anandamide (test compound A), indometacin morpholinylamide (test compound B) and N-(benzo[d][1,3]dioxol-5-ylmethyl)-7-methoxy-2-oxo-8-penty loxy-1,2-dihydroquinoline-3-carboxamide (test compound C).
Test compound A (50 mg/ml in EtOH) was suspended in a physiological saline at a concentration of 0.01% (w/v). Test compound B was suspended in a 1.0% Tween 80/physiological saline at a concentration of 0.001% or 0.01% (w/v). Test compound C was suspended in a 5.0% Tween 80/physiolosical saline at a concentration of 0.0001%, 0.001% or 0.01% (w/v). In this manner, the test compound suspensions were prepared.
With respect to test compounds A and B, each of the test compound suspensions was instilled into both eyes of a 5-week-old male Hartley guinea pig in 10 μL/one eye. Ten minutes later, each of the test compound suspensions was instilled thereinto at the same concentration (twice in total). With respect to test compound C, the test compound suspension was instilled into both eyes of the 5-week-old male Hartley guinea pig in 10 μL/one eye.
Subsequently, with respect to test compounds A and B, a physiological saline containing 0.1% (w/v) of the platelet activating factor was instilled in 10 μL/one eye into both eyes of the guinea pig after 5 minutes from the second instilling of the respective test compound suspensions. With respect to test compound C, the same physiological saline was instilled in 10 μL/one eye into both eyes of the guinea pig after 15 minutes from the instilling of the test compound suspension. In this manner, the eye scratching action was induced. As controls of test compounds A, B and C, a 2.0% ethanol/physiological saline, a physiological saline and a 5.0% Tween 80/physiological saline were used respectively.
The behavior of the guinea pig after instilling the platelet activating factor was videotaped, and the ocular pruritus was evaluated for each eye by counting the number of actions of scratching the eye with the hind foot. The average value of the eye scratching inhibition rate for 30 minutes after instilling the platelet activating factor is shown in Table 3. In each example, 8 eyes are used.

[3] = 0.1% (w/v) suspension instilled twice
[4] = 0.5% (w/v) suspension instilled twice
[5] = 0.01% (w/v) suspension instilled twice, 30 minutes after 0.1% PAF

## CCCCCCCCCCCCCCCC(=O)NCCO [Palmidrol, N-palmitoyl-ethanolamide]
histamine-induced models; [3]
  Number of eye scratchings: 8.5 times
  Eye scratching inhibition rate: 62.8%
histamine-induced models; [4]
  Number of eye scratchings: 3.8 times
  Eye scratching inhibition rate: 83.2%
histamine-induced models; instilled 0.1% or 0.5%, extent depends on concentration
  Number of eye scratchings in comparison with the control (in words): markedly decreased
[1]; Day 21 after sensitization
  Eye scratching inhibition rate: 41.5%
[1]; Day 23 after sensitization
  Eye scratching inhibition rate: 52.3%
[1]; Day 25 after sensitization
  Eye scratching inhibition rate: 51.7%
[1]; 0.1% instilled
  Eye scratching action in comparison with the control (in words): significantly inhibited

## CCCCC/C=C\C/C=C\C/C=C\C/C=C\CCCC(=O)NCCO [Test compound A, anandamide]
[2]; [5]
  Eye scratching inhibition rate: 40.9%
[2]
  Number of eye scratchings in comparison with the controls (in words): markedly decreased

## COc1ccc2c(c1)c(CC(=O)N1CCOCC1)c(C)n2C(=O)c1ccc(Cl)cc1 [Test compound B, indometacin morpholinylamide]
[2]; 0.001% (w/v) suspension instilled twice, 30 minutes after 0.1% PAF
  Eye scratching inhibition rate: 38.7%
[2]; [5]
  Eye scratching inhibition rate: 52.9%
[2]
  Number of eye scratchings in comparison with the controls (in words): markedly decreased

## CCCCCOc1c(OC)ccc2cc(C(=O)NCc3ccc4c(c3)OCO4)c(=O)[nH]c12 [Test Compound C, N-(benzo[d][1,3]dioxol-5-ylmethyl)-7-methoxy-2-oxo-8-pentyloxy-1,2-dihydroquinoline-3-carboxamide]
[2]; 0.0001% (w/v) suspension instilled once, 15 minutes before 0.1% PAF, 30 minutes
  Eye scratching inhibition rate: 22.7%
[2]; 0.001% (w/v) suspension instilled once, 15 minutes before 0.1% PAF, 30 minutes
  Eye scratching inhibition rate: 34.3%
[2]; 0.01% (w/v) suspension instilled once, 15 minutes before 0.1% PAF, 30 minutes
  Eye scratching inhibition rate: 44.2%
[2]
  Number of eye scratchings in comparison with the controls (in words): markedly decreased

Source: patent publication US20050009902A1, “Remedies for pruritus” (priority 2001, published 2005)
